From US11166460B2, “α-amino acrylate microbicide, and preparation method therefor and uses thereof” (priority 2017, dated 2021)
Converted amounts (≈) assume the structure as drawn. Read-outs that look alike come from different tables or passages of the source.

Columns and labels:
[1] = test system: tobacco mosaic virus (TMV); assay: Anti-TMV curative activity (treatment mode), live friction inoculation on tobacco seedlings; type: in vivo; details: Tobacco mosaic virus, read-out: Anti-TMV activity, Curative effect (inhibition), 100 μg/mL, tobacco seedlings, checked on seventh day
[2] = test system: tobacco mosaic virus (TMV); assay: Anti-TMV inactivation activity (inactivation mode), compound mixed with TMV before inoculation of tobacco leaves; type: in vivo; details: Tobacco mosaic virus, read-out: Anti-TMV activity, Inactivation effect (inhibition)
[3] = test system: tobacco mosaic virus (TMV); assay: Anti-TMV protective activity (protection mode), live friction inoculation on tobacco seedlings; type: in vivo; details: Tobacco mosaic virus, read-out: Anti-TMV activity, Protection effect (inhibition)
[4] = test system: tobacco mosaic virus (TMV); assay: Anti-TMV inducing activity (induction mode), tobacco seedlings; type: in vivo; details: Tobacco mosaic virus, read-out: Anti-TMV activity, Induction effect (inhibition), 100 μg/mL, tobacco seedlings
[5] = test system: Alternaria solani; assay: Fungicidal activity, fungi growth rate method, AS; type: cell-based; details: Alternaria solani, 50 μg/mL
[6] = test system: Botrytis cinerea; assay: Fungicidal activity, fungi growth rate method, BC; type: cell-based; details: Botrytis cinerea, 50 μg/mL
[7] = test system: Cercospora arachidicola; assay: Fungicidal activity, fungi growth rate method, CA; type: cell-based; details: Mycosphaerella arachidis, 50 μg/mL
[8] = test system: wheat Gibberella zeae; assay: microbe, parasite or virus in culture; type: cell-based; details: Fusarium graminearum
[9] = test system: Phytophthora infestans (Mont) de Bary; assay: microbe, parasite or virus in culture; type: cell-based; details: Phytophthora infestans
[10] = test system: Physalospora piricola; assay: Fungicidal activity, fungi growth rate method, PP; type: cell-based; details: 50 μg/mL
[11] = test system: Pellicularia sasakii; assay: Fungicidal activity, fungi growth rate method, PS; type: cell-based; details: 50 μg/mL
[12] = test system: Rhizoctonia cerealis; assay: Fungicidal activity, fungi growth rate method, RC; type: cell-based; details: Ceratobasidium cereale, 50 μg/mL
[13] = test system: Sclerotinia sclerotiorum; assay: microbe, parasite or virus in culture; type: cell-based; details: Sclerotinia sclerotiorum; for inhibition at 50 µg/mL: 50 μg/mL
[14] = read-out: Fungicidal activity, inhibition, AS
[15] = read-out: Fungicidal activity, inhibition, BC
[16] = read-out: Fungicidal activity, inhibition, CA
[17] = read-out: Fungicidal activity, inhibition, GZ
[18] = read-out: Fungicidal activity, inhibition, PI
[19] = read-out: Fungicidal activity, inhibition, PP
[20] = read-out: Fungicidal activity, inhibition, PS
[21] = read-out: Fungicidal activity, inhibition, RC
[22] = read-out: Fungicidal activity, inhibition, SS
[23] = read-out: Fungicidal activity (inhibition) against SS: Sclerotinia sclerotiorum

Row | SMILES | inhibition at 100 µg/mL [1] [%] | inhibition at 100 µg/mL [2] [%] | inhibition at 100 µg/mL [3] [%] | inhibition at 100 µg/mL [4] [%] | inhibition at 50 µg/mL [5, 14] [%] | inhibition at 50 µg/mL [6, 15] [%] | inhibition at 50 µg/mL [7, 16] [%] | inhibition at 50 µg/mL [8, 17] [%] | inhibition at 50 µg/mL [9, 18] [%] | inhibition at 50 µg/mL [10, 19] [%] | inhibition at 50 µg/mL [11, 20] [%] | inhibition at 50 µg/mL [12, 21] [%] | inhibition at 50 µg/mL [13, 22] [%] | melting point [°C] | inhibition at 50 µg/mL [13, 23] [%] | further results
1 | O=C(NCc1cccc(Br)c1)/C(=C/c1ccccc1)NC(=O)c1ccccc1 [Compound 51, N-[(1Z)-2-phenyl-1-[[(3-bromophenylmethyl)amino]carbonyl]ethenyl]benzamide] | 12 | 69 | 11 | 14 | 25 | 24 | 15 | 43 | 21 | 18 | 14 | 28 | 50 | 180 to 182 |  | 
2 | O=C(NCc1ccccc1Br)/C(=C/c1ccccc1)NC(=O)c1ccccc1 [Compound 52, N-[(1Z)-2-phenyl-1-[[(2-bromophenylmethyl)amino]carbonyl]ethenyl]benzamide] | 12 | 31 | 20 | 47 | 11 | 18 | 11 | 29 | 16 | 6 | 14 | 18 | 38 | 178 to 180 |  | 
3 | O=C(NCc1ccccc1)/C(=C/c1ccccc1)NC(=O)c1ccccc1 [Compound 53, N-[(1Z)-2-phenyl-1-[[(phenylmethyl)amino]carbonyl]ethenyl]benzamide] | 55 | 58 | 33 | 0 | 16 | 16 | 18 | 23 | 5 | 13 | 8 | 5 | 75 | 169 to 171 | 75 | inhibition at 50 µg/mL ([5]; read-out: Fungicidal activity (inhibition) against AS: Alternaria solani): < 30%; inhibition at 50 µg/mL ([6]; read-out: Fungicidal activity (inhibition) against BC: Botrytis cinerea): ≤ 20%; inhibition at 50 µg/mL ([7]; read-out: Fungicidal activity (inhibition) against CA: Cercospora arachidicola): < 25%; inhibition at 50 µg/mL ([8]; read-out: Fungicidal activity (inhibition) against GZ: wheat Gibberella zeae): < 45%; inhibition at 50 µg/mL ([9]; read-out: Fungicidal activity (inhibition) against PI: Phytophthora infestans (Mont) de Bary): < 25%; inhibition at 50 µg/mL ([10]; read-out: Fungicidal activity (inhibition) against PP: Physalospora piricola): < 20%; inhibition at 50 µg/mL ([11]; read-out: Fungicidal activity (inhibition) against PS: Pellicularia sasakii): < 30%; inhibition at 50 µg/mL ([12]; read-out: Fungicidal activity (inhibition) against RC: Rhizoctonia cerealis): < 20%
4 | COc1ccc(CNC(=O)/C(=C/c2ccccc2)NC(=O)c2ccccc2)cc1 [Compound 54, N-[(1Z)-2-phenyl-1-[[(4-methoxyphenylmethyl)amino]carbonyl]ethenyl]benzamide] | 49 | 28 | 0 | 0 | 16 | 12 | 16 | 42 | 2 | 13 | 17 | 17 | 75 | 138 to 140 | 60 to 80 | 
5 | O=C(NCc1ccc(F)cc1)/C(=C/c1ccccc1)NC(=O)c1ccccc1 [Compound 55, N-[(1Z)-2-phenyl-1-[[(4-fluorophenylmethyl)amino]carbonyl]ethenyl]benzamide] | 45 | 59 | 0 | 4 | 28 | 12 | 10 | 34 | 19 | 21 | 12 | 12 | 75 | 199 to 201 | 60 to 80 | 
6 | O=C(NCc1ccc(Cl)cc1)/C(=C/c1ccccc1)NC(=O)c1ccccc1 [Compound 56, N-[(1Z)-2-phenyl-1-[[(4-chlorophenylmethyl)amino]carbonyl]ethenyl]benzamide] | 30 | 58 | 0 | 4 | 24 | 22 | 14 | 19 | 5 | 4 | 12 | 17 | 100 | 202 to 204 | 100 | EC90 ([13]; read-out: EC90 against S. sclerotiorum in vitro): 1260 µg/mL (≈ 3.21 mM)
7 | O=C(NCc1ccc(C(F)(F)F)cc1)/C(=C/c1ccccc1)NC(=O)c1ccccc1 [Compound 57, N-[(1Z)-2-phenyl-1-[[(4-trifluoromethylphenylmethyl)amino]carbonyl]ethenyl]benzamide] | 52 | 61 | 4 | 0 | 16 | 10 | 4 | 31 | 0 | 0 | 19 | 10 | 50 | 167 to 168 |  | 
8 | O=C(NCc1cccs1)/C(=C/c1ccccc1)NC(=O)c1ccccc1 [Compound 58, N-[(1Z)-2-phenyl-1-[[(2-thienylmethyl)amino]carbonyl]ethenyl]benzamide] | 17 | 0 | 0 | 2 | 21 | 18 | 6 | 29 | 21 | 9 | 14 | 18 | 47 | 210 to 212 |  | 
9 | O=C(NCc1ccc(Br)cc1)/C(=C/c1ccccc1)NC(=O)C1CC1 [Compound 59, N-[(1Z)-2-phenyl-1-[[(4-bromophenylmethyl)amino]carbonyl]ethenyl]cyclopropanecarboxamide] | 80 | 39 | 41 | 26 | 16 | 18 | 22 | 16 | 10 | 8 | 19 | 24 | 75 | 187 to 189 | 60 to 80 | 
10 | O=C(NCc1ccc(Br)cc1)/C(=C/c1ccccc1)NC(=O)C1CCCCC1 [Compound 60, N-[(1Z)-2-phenyl-1-[[(4-bromophenylmethyl)amino]carbonyl]ethenyl]cyclohexanecarboxamide] | 16 | 53 | 28 | 18 | 21 | 18 | 18 | 57 | 16 | 12 | 9 | 23 | 38 | 215 to 216 |  | 
11 | O=C(OCc1ccc(Br)cc1)/C(=C/c1ccccc1)NC(=O)c1ccccc1 [Compound 61, N-[(1Z)-2-phenyl-1-[(4-bromophenymethoxyl)carbonyl]ethenyl]benzamide] | 0 | 13 | 16 | 0 | 25 | 18 | 12 | 29 | 11 | 6 | 9 | 13 | 44 | 168 to 170 |  | 
